Experimental data reported in patent US9340510B2, “Tetrahydroisoquinoline derivatives, pharmaceutical compositions and uses thereof” (Boehringer Ingelheim International GmbH, priority 2014, dated 2016).

target: human ACC2 (Homo sapiens (Human), UniProt O00763); assay: ACC2 assay: spectrophotometric 384 well assay (coupled lactate dehydrogenase/pyruvate kinase); format: biochemical; conditions: hACC2 construct lacking the 128 N-terminal amino acids, 25° C., 340 nm
Procedure: Spectrophotometric 384 Well Assay
Malonyl CoA formation by acetyl CoA carboxylases is stoichiometrically linked to the consumption of ATP. ACC2 activity is measured in a […] kinetic method measuring ADP generated during the ACC reaction using a coupled lactate dehydrogenase/pyruvate kinase reaction.
For biological testing, a human ACC2 construct which lacks the 128 amino acids at the N-terminus for increased solubility (nt 385-6966 in Genbank entry AJ575592) is cloned. The protein is then expressed in insect cells using a baculoviral expression system. Protein purification is performed by anion exchange.
All compounds are dissolved in dimethyl sulfoxide (DMSO) to a concentration of 10 mM.
Assay reactions are then carried out in 384-well plates, with hACC2 in an appropriate dilution and at final assay concentrations (f.c.) of 100 mM Tris (pH 7.5), 10 mM trisodium citrate, 25 mM KHCO3, 10 mM MgCl2, 0.5 mg/ml BSA, 3.75 mM reduced L-glutathione, 15 U/ml lactate dehydrogenase, 0.5 mM phosphoenolpyruvate, 15 U/ml pyruvate kinase, compounds at different concentrations at final DMSO concentrations of 1%.
The enzymatic reaction is then started by addition of a mixture of NADH, acetyl Coenzyme A (both […].) and ATP (500 uM f.c.). The decrease of the optical density (slope S) is then determined at 25° C. at a wavelength of 340 nm over 15 minutes in a spectrophotometric reader.
Each assay microtiter plate contains wells with vehicle instead of compound as controls for the non-inhibited enzyme (100% CTL; ‘HIGH’) and wells without acetyl-CoA as controls for non-specific NADH degradation (0% CTL; ‘LOW’).
The slope S is used for calculation of % CTL=(S(compound)−S(‘LOW’))/(S(‘HIGH’)−S(‘LOW’))*100. Compounds will give values between 100% CTL (no inhibition) and 0% CTL (complete inhibition).
For IC50 value determination, the sample slope in the presence of the test compound after subtraction of the low controls (S(compound)−S(‘LOW’)) are used.
An IC50 value is derived from the compound slopes at different dosages after subtraction of the low controls (S(compound)-S(‘LOW’)) by non-linear regression curve fitting (equation y=(A+((B−A)/(1+((C/x)^D))))).

Sequence of human ACC2 (O00763 129-2458): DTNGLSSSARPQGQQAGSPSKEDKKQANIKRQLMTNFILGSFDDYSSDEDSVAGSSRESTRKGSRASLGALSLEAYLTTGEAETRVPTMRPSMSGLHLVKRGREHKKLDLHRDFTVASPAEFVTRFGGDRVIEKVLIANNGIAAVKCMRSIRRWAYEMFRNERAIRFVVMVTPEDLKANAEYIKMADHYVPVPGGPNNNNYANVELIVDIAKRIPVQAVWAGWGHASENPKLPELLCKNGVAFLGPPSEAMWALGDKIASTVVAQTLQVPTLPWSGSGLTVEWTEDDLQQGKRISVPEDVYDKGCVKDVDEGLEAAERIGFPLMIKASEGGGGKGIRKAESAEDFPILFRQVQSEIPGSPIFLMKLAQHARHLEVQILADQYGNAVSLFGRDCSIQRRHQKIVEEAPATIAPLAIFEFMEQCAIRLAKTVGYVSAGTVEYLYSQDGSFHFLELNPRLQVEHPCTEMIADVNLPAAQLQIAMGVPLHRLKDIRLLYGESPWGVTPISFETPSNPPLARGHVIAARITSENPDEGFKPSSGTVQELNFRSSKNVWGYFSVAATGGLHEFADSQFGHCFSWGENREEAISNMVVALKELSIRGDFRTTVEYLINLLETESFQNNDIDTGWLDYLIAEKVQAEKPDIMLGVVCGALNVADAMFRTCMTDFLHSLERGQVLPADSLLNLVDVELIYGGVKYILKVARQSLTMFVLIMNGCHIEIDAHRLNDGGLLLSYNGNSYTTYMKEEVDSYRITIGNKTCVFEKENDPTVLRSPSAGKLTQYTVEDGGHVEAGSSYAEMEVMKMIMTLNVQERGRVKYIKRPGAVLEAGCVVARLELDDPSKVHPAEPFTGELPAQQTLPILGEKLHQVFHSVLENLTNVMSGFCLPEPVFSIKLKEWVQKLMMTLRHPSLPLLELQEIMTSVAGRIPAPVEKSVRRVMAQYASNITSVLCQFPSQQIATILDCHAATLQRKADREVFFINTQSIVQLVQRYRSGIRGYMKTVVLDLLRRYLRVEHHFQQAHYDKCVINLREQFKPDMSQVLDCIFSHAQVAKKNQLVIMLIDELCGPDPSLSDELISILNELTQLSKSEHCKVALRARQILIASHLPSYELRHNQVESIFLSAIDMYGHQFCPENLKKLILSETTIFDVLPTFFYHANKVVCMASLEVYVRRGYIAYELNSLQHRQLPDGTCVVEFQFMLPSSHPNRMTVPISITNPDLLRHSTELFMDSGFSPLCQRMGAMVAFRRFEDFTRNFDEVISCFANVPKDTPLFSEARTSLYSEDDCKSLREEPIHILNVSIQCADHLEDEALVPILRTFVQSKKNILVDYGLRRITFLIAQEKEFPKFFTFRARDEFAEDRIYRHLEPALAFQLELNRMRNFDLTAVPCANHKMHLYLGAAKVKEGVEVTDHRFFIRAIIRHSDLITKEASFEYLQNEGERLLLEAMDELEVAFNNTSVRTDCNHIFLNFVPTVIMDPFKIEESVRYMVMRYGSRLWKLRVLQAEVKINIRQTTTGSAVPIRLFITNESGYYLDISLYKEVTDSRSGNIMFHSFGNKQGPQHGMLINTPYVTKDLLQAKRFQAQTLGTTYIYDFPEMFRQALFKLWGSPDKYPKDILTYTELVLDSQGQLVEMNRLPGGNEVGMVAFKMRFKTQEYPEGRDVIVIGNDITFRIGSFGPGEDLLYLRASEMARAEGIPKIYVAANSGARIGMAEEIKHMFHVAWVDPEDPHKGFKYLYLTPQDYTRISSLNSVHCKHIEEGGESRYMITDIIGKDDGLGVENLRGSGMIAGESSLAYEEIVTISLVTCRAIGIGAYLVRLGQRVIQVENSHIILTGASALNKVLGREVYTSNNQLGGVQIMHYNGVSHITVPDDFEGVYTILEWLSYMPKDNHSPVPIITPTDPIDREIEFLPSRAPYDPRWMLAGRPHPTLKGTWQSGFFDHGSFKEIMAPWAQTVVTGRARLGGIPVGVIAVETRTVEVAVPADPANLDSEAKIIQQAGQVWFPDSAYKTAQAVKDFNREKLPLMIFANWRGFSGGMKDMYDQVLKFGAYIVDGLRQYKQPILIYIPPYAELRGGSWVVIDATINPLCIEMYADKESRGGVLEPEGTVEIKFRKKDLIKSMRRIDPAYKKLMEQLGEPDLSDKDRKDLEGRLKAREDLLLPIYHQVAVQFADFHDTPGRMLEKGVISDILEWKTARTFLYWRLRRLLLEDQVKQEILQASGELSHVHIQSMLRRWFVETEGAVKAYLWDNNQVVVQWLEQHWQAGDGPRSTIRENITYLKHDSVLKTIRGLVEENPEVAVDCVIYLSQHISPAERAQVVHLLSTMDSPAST

Row | IC50 [µM] | Compound
1 | 0.145 | COc1c(OC2CCC2)ccc2c1CCN(Cc1ccc([C@H](C)NC(C)=O)cc1)C2 [Example 1.070]
2 | 0.34 | COc1c(OCC(F)F)ccc2c1CCN(Cc1ccc([C@H](C)NC(C)=O)cc1)C2 [Example 1.071]
3 | 0.141 | COc1c(OCCC(F)F)ccc2c1CCN(Cc1ccc([C@H](C)NC(C)=O)cc1)C2 [Example 1.072]
4 | 0.04 | COc1c(OCC2CCC2)ccc2c1CCN(Cc1ccc([C@H](C)NC(C)=O)cc1)C2 [Example 1.073]
5 | 0.079 | CCCOc1ccc2c(c1OC)CCN(Cc1ccc([C@H](C)NC(C)=O)cc1)C2 [Example 1.074]
6 | 0.055 | COc1c(OCC2CC(F)(F)C2)ccc2c1CCN(Cc1ccc([C@H](C)NC(C)=O)cc1)C2 [Example 1.075]
7 | 0.068 | COc1c(OCC2CC2)ccc2c1CCN(Cc1ccc([C@H](C)NC(C)=O)cc1)C2 [Example 1.076]
8 | 0.04 | COc1c(OCCC2CC2)ccc2c1CCN(Cc1ccc([C@H](C)NC(C)=O)cc1)C2 [Example 1.077]
9 | 0.067 | CC(=O)N[C@@H](C)c1ccc(CN2CCc3c(ccc(Cl)c3Cl)C2)cc1 [Example 1.078]
10 | 0.136 | CC(=O)N[C@@H](C)c1ccc(CN2CCc3c(ccc(OC(C)C)c3Br)C2)cc1 [Example 1.079]
11 | 0.396 | COc1ccc2c(c1F)CCN(Cc1ccc([C@H](C)NC(C)=O)cc1)C2 [Example 1.080]
12 | 0.232 | CC(=O)N[C@@H](C)c1ccc(CN2CCc3cc(Cl)ccc3C2)cc1 [Example 1.081]
13 | 0.039 | CC(=O)N[C@@H](C)c1ccc(CN2CCc3cc(OCC4CC4(F)F)ccc3C2C)cc1 (stereo partly shown) [Example 1.082]
14 | 0.449 | CCOc1ccc2c(c1OC)CCN(Cc1ccc([C@H](C)NC(C)=O)cc1)C2C (stereo partly shown) [Example 1.083]
15 | 0.263 | COc1c(OCC2CC2(F)F)ccc2c1CCN(Cc1ccc([C@H](C)NC(C)=O)cc1)C2C (stereo partly shown) [Example 1.084]
16 | 0.28 | COc1c(OC2CCC2)ccc2c1CCN(Cc1ccc([C@H](C)NC(C)=O)cc1)C2C (stereo partly shown) [Example 1.085]
17 | 0.227 | COc1c(OCC2CC2)ccc2c1CCN(Cc1ccc([C@H](C)NC(C)=O)cc1)C2C (stereo partly shown) [Example 1.086]
18 | 0.189 | COc1c(OCC2CC(F)(F)C2)ccc2c1CCN(Cc1ccc([C@H](C)NC(C)=O)cc1)C2C (stereo partly shown) [Example 1.087]
19 | 0.012 | CC(=O)N[C@@H](C)c1ccc(CN2CCc3cc(OCC4CC4)ccc3C2)cc1 [Example 1.088]
20 | 0.089 | CC(=O)N[C@@H](C)c1ccc(CN2CC(=O)c3cc(OCc4ccccc4)ccc3C2)cc1 [Example 1.089]
21 | 0.065 | CC(=O)N[C@@H](C)c1ccc(CN2CC(=O)c3cc(OCC4CC4)ccc3C2)cc1 [Example 1.090]
22 | 0.13 | CC(=O)N[C@@H](C)c1ccc(CN2Cc3ccc(OCC4CC4(F)F)cc3C(O)C2)cc1 (stereo partly shown) [Example 1.091]
23 | 0.016 | CC(=O)N[C@@H](C)c1ccc(CN2Cc3ccc(OCC4CC4(F)F)cc3C(F)C2)cc1 (stereo partly shown) [Example 1.092]
24 | 0.02 | CC(=O)N[C@@H](C)c1ccc(CN2Cc3ccc(OCC4CC4)cc3C(F)C2)cc1 (stereo partly shown) [Example 1.093]
25 | 0.296 | COC1CN(Cc2ccc([C@H](C)NC(C)=O)cc2)Cc2ccc(OCC3CC3)cc21 (stereo partly shown) [Example 1.094]
26 | 0.494 | COc1ccc2c(c1F)CCN(Cc1ccc([C@H](C)NC(C)=O)cc1)C2C (stereo partly shown) [Example 1.095]
27 | 0.315 | CC(=O)N[C@@H](C)c1ccc(CN2Cc3ccc(OCC4CC4)cc3C(O)C2)cc1 (stereo partly shown) [Example 1.096]

Row | IC50 [µM] | Compound
28 | 0.038 | CC(=O)N[C@@H](C)c1ccc(CN2Cc3ccc(OCC4CC4)cc3C(F)(F)C2)cc1 [Example 1.097]
29 | 0.392 | CC(=O)N[C@@H](C)c1ccc(CN2Cc3ccc(OC(C)C)cc3C(O)C2)cc1 (stereo partly shown) [Example 1.098]
30 | 0.421 | CC(=O)N[C@@H](C)c1ccc(CN2Cc3ccc(OC4CCC4)cc3C(O)C2)cc1 (stereo partly shown) [Example 1.099]
31 | 0.03 | CC(=O)N[C@@H](C)c1ccc(CN2Cc3ccc(OC(C)C)cc3C(F)C2)cc1 (stereo partly shown) [Example 1.100]
32 | 0.055 | CC(=O)N[C@@H](C)c1ccc(CN2Cc3ccc(OCC4CCC4)cc3C(O)C2)cc1 (stereo partly shown) [Example 1.101]
33 | 0.237 | COc1cccc2c1CCN(Cc1ccc([C@H](C)NC(=O)C3CC3)cc1)C2 [Example 2.002]
34 | 0.157 | COc1cccc2c1CCN(Cc1ccc([C@H](C)NC(=O)c3sc(NC(C)=O)nc3C)cc1)C2 [Example 2.003]
35 | 0.459 | C[C@H](NC(=O)CC(=O)N(C)C)c1ccc(CN2CCc3cc(OCC4CC4)ccc3C2)cc1 [Example 2.03]
36 | 0.184 | COc1cccc2c1CCN(Cc1ccc([C@H](C)NC(=O)c3cn[nH]c3)cc1)C2 [Example 2.004]
37 | 0.45 | C[C@H](NC(=O)CC#N)c1ccc(CN2CC(=O)c3cc(OCC4CC4(F)F)ccc3C2)cc1 (stereo partly shown) [Example 2.04]
38 | 0.105 | CC(=O)Nc1nc(C)c(C(=O)N[C@@H](C)c2ccc(CN3CCc4c(cccc4C(F)(F)F)C3)cc2)s1 [Example 2.005]
39 | 0.085 | C[C@H](NC(=O)c1cncs1)c1ccc(CN2CCc3c(cccc3C(F)(F)F)C2)cc1 [Example 2.006]
40 | 0.104 | C[C@H](NC(=O)C1CC1)c1ccc(CN2CCc3c(cccc3C(F)(F)F)C2)cc1 [Example 2.007]
41 | 0.1 | C[C@H](NC(=O)c1cn[nH]c1)c1ccc(CN2CCc3c(cccc3C(F)(F)F)C2)cc1 [Example 2.008]
42 | 0.249 | C[C@H](NC(=O)C1CC1)c1ccc(CN2CCc3c(Br)cccc3C2)cc1 [Example 2.009]
43 | 0.179 | C[C@H](NC(=O)c1cncs1)c1ccc(CN2CCc3c(Br)cccc3C2)cc1 [Example 2.010]
44 | 0.194 | CCC(=O)N[C@@H](C)c1ccc(CN2CCc3c(Br)cccc3C2)cc1 [Example 2.011]
45 | 0.097 | CC(=O)Nc1nc(C)c(C(=O)N[C@@H](C)c2ccc(CN3CCc4c(cccc4OC4CCC4)C3)cc2)s1 [Example 2.012]
46 | 0.166 | CCC(=O)N[C@@H](C)c1ccc(CN2CCc3c(cccc3OC3CCC3)C2)cc1 [Example 2.013]
47 | 0.144 | C[C@H](NC(=O)c1cncs1)c1ccc(CN2CCc3c(cccc3OC3CCC3)C2)cc1 [Example 2.014]
48 | 0.038 | C[C@H](NC(=O)C1CC1)c1ccc(CN2CCc3cc(OCC4CC(F)(F)C4)ccc3C2)cc1 [Example 2.015]
49 | 0.299 | C[C@H](NC(=O)C1CC1)c1ccc(CN2CCc3cc(OCCCF)ccc3C2)cc1 [Example 2.016]
50 | 0.038 | C[C@H](NC(=O)C1CC1)c1ccc(CN2CCc3cc(OCC4CCC4)ccc3C2)cc1 [Example 2.017]
51 | 0.047 | C[C@H](NC(=O)C1CC1)c1ccc(CN2CCc3cc(OCCC4CC4)ccc3C2)cc1 [Example 2.018]
52 | 0.057 | CC(C)COc1ccc2c(c1)CCN(Cc1ccc([C@H](C)NC(=O)C3CC3)cc1)C2 [Example 2.019]
53 | 0.028 | CC(=O)Nc1nc(C)c(C(=O)N[C@@H](C)c2ccc(CN3CCc4cc(OCC5CC5(F)F)ccc4C3)cc2)s1 (stereo partly shown) [Example 2.020]
54 | 0.168 | CC(O)C(=O)N[C@@H](C)c1ccc(CN2CCc3cc(OCC4CC4)ccc3C2)cc1 (stereo partly shown) [Example 2.021]

Row | Compound | IC50 [µM]
55 | COc1cccc2c1CCN(Cc1ccc([C@H](C)NC(=O)c3cncs3)cc1)C2 [Example 2.001, Thiazole-5-carboxylic acid {(S)-1-[4-(5-methoxy-3,4-dihydro-1H-isoquinolin-2-ylmethyl)-phenyl]-ethyl}-amide] | 0.135
